Legend:
HCC-2998 = assay: NCI cytotoxicity screen, Colon Cancer panel; assay type: cell-based, human; conditions: Homo sapiens; HCC-2998; single dose 10 µM; negative = lethal; read-out: Percent growth inhibition
Procedure: (§1) Cytotoxicity was performed at National Cancer Institute (NCI), Bethesda, USA as per their protocols.

[1] = Experimental log P, shake-flask method; assay type: physicochemical; conditions: n-octanol/phosphate buffer pH 7.4, read-out: Exp. Log P
How it was run: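 Shake-flask partitioning between n-octanol and phosphate buffer pH 7.4, shaken 50 min, then centrifuged 35 min at 2500 rpm. Buffer-phase absorbance at each compound's λmax measured before and after partitioning. P calculated from absorbance drop and phase volume ratio.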

HCT-15 = assay: NCI cytotoxicity screen, Colon Cancer panel; assay type: cell-based; conditions: Homo sapiens, single dose 10 µM, negative = lethal, read-out: Percent growth inhibition
Procedure: as §1

HCT-116 = assay: NCI cytotoxicity screen, Colon Cancer panel; assay type: cell-based; conditions: Homo sapiens, single dose 10 µM, negative = lethal, read-out: Percent growth inhibition
Procedure: as §1

HT29 = assay: NCI cytotoxicity screen, Colon Cancer panel; assay type: cell-based; conditions: Homo sapiens, HT-29; HT29; single dose 10 µM; negative = lethal; read-out: Percent growth inhibition
Procedure: as §1

COLO 205 = assay: NCI cytotoxicity screen, Colon Cancer panel; assay type: cell-based; conditions: Homo sapiens, single dose 10 µM, negative = lethal, read-out: Percent growth inhibition
Procedure: as §1

RPMI-8226 = assay: NCI cytotoxicity screen, Leukemia panel; assay type: cell-based; conditions: Homo sapiens; RPMI-8226; single dose 10 µM; negative = lethal; read-out: Percent growth inhibition
Procedure: as §1

SR = assay: NCI cytotoxicity screen, Leukemia panel; assay type: cell-based; conditions: Homo sapiens, single dose 10 µM, negative = lethal, read-out: Percent growth inhibition
Procedure: as §1

CCRF-CEM = assay: NCI cytotoxicity screen, Leukemia panel; assay type: cell-based; conditions: Homo sapiens, single dose 10 µM, negative = lethal, read-out: Percent growth inhibition
Procedure: as §1

HL-60(TB) = assay: NCI cytotoxicity screen, Leukemia panel; assay type: cell-based; conditions: Homo sapiens, HL-60, HL-60(TB); single dose 10 µM; negative = lethal; read-out: Percent growth inhibition
Procedure: as §1

MOLT-4 = assay: NCI cytotoxicity screen, Leukemia panel; assay type: cell-based; conditions: Homo sapiens, MOLT-4, MOLT-4; single dose 10 µM; negative = lethal; read-out: Percent growth inhibition
Procedure: as §1

K-562 = assay: NCI cytotoxicity screen, Leukemia panel; assay type: cell-based; conditions: Homo sapiens, K562; K-562; single dose 10 µM; negative = lethal; read-out: Percent growth inhibition
Procedure: as §1

IGROV1 = assay: NCI cytotoxicity screen, Ovarian Cancer panel; assay type: cell-based; conditions: Homo sapiens, IGROV-1, single dose 10 µM, negative = lethal, read-out: Percent growth inhibition
Procedure: as §1

OVCAR-8 = assay: NCI cytotoxicity screen, Ovarian Cancer panel; assay type: cell-based; conditions: Homo sapiens, single dose 10 µM, negative = lethal, read-out: Percent growth inhibition
Procedure: as §1

OVCAR-5 = assay: NCI cytotoxicity screen, Ovarian Cancer panel; assay type: cell-based; conditions: Homo sapiens, single dose 10 µM, negative = lethal, read-out: Percent growth inhibition
Procedure: as §1

OVCAR-4 = assay: NCI cytotoxicity screen, Ovarian Cancer panel; assay type: cell-based; conditions: Homo sapiens; OVCAR-4; single dose 10 µM; negative = lethal; read-out: Percent growth inhibition
Procedure: as §1

SK-OV-3 = assay: NCI cytotoxicity screen, Ovarian Cancer panel; assay type: cell-based; conditions: Homo sapiens, single dose 10 µM, negative = lethal, read-out: Percent growth inhibition
Procedure: as §1

NCI/ADR-RES = assay: NCI cytotoxicity screen, Ovarian Cancer panel; assay type: cell-based; conditions: Homo sapiens, single dose 10 µM, negative = lethal, read-out: Percent growth inhibition
Procedure: as §1

PC-3 = assay: NCI cytotoxicity screen, Prostate Cancer panel; assay type: cell-based, human; conditions: Homo sapiens, single dose 10 µM, negative = lethal, read-out: Percent growth inhibition
Procedure: as §1

DU-145 = assay: NCI cytotoxicity screen, Prostate Cancer panel; assay type: cell-based, human; conditions: Homo sapiens, single dose 10 µM, negative = lethal, read-out: Percent growth inhibition
Procedure: as §1

MDA-MB-468 = assay: NCI cytotoxicity screen, Breast Cancer panel; assay type: cell-based; conditions: Homo sapiens, single dose 10 µM, negative = lethal, read-out: Percent growth inhibition
Procedure: as §1

HS 578 T = assay: NCI cytotoxicity screen, Breast Cancer panel; assay type: cell-based; conditions: Homo sapiens; HS 578T; single dose 10 µM; negative = lethal; read-out: Percent growth inhibition
Procedure: as §1

BT-549 = assay: NCI cytotoxicity screen, Breast Cancer panel; assay type: cell-based; conditions: Homo sapiens, single dose 10 µM, negative = lethal, read-out: Percent growth inhibition
Procedure: as §1

T-47D = assay: NCI cytotoxicity screen, Breast Cancer panel; assay type: cell-based; conditions: Homo sapiens, T47D, T-47D; single dose 10 µM; negative = lethal; read-out: Percent growth inhibition
Procedure: as §1

MCF7 = assay: NCI cytotoxicity screen, Breast Cancer panel; assay type: cell-based; conditions: Homo sapiens, single dose 10 µM, negative = lethal, read-out: Percent growth inhibition
Procedure: as §1

MDA-MB-231/ATCC = assay: NCI cytotoxicity screen, Breast Cancer panel; assay type: cell-based; conditions: Homo sapiens, MDA-MB-231, read-out: Percent growth inhibition
Procedure: as §1

CAKI-1 = assay: NCI cytotoxicity screen, Renal Cancer panel; assay type: cell-based; conditions: Homo sapiens; CAKI-1; single dose 10 µM; negative = lethal; read-out: Percent growth inhibition
Procedure: as §1

ACHN = assay: NCI cytotoxicity screen, Renal Cancer panel; assay type: cell-based; conditions: Homo sapiens, single dose 10 µM, negative = lethal, read-out: Percent growth inhibition
Procedure: as §1

RXF 393 = assay: NCI cytotoxicity screen, Renal Cancer panel; assay type: cell-based; conditions: Homo sapiens, single dose 10 µM, negative = lethal, read-out: Percent growth inhibition
Procedure: as §1

A498 = assay: NCI cytotoxicity screen, Renal Cancer panel; assay type: cell-based; conditions: Homo sapiens, single dose 10 µM, negative = lethal, read-out: Percent growth inhibition
Procedure: as §1

SN12C = assay: NCI cytotoxicity screen, Renal Cancer panel; assay type: cell-based; conditions: Homo sapiens, single dose 10 µM, negative = lethal, read-out: Percent growth inhibition
Procedure: as §1

UO-31 = assay: NCI cytotoxicity screen, Renal Cancer panel; assay type: cell-based; conditions: Homo sapiens, single dose 10 µM, negative = lethal, read-out: Percent growth inhibition
Procedure: as §1

OVCAR-3 = assay: NCI cytotoxicity screen, Ovarian Cancer panel; assay type: cell-based, human; conditions: Homo sapiens; OVCAR-3; single dose 10 µM; negative = lethal; read-out: Percent growth inhibition
Procedure: as §1

EXVX = assay: NCI cytotoxicity screen, Non-Small Cell Lung Cancer panel; assay type: cell-based; conditions: Homo sapiens; EXVX; single dose 10 µM; negative = lethal; read-out: Percent growth inhibition
Procedure: as §1

NCI-H460 = assay: as above; assay type: cell-based; conditions: Homo sapiens, single dose 10 µM, negative = lethal, read-out: Percent growth inhibition
Procedure: as §1

A549/ATCC = assay: as above; assay type: cell-based; conditions: Homo sapiens; A549/ATCC; single dose 10 µM; negative = lethal; read-out: Percent growth inhibition
Procedure: as §1

HOP-92 = assay: as above; assay type: cell-based; conditions: Homo sapiens, single dose 10 µM, negative = lethal, read-out: Percent growth inhibition
Procedure: as §1

HOP-62 = assay: as above; assay type: cell-based; conditions: Homo sapiens, single dose 10 µM, negative = lethal, read-out: Percent growth inhibition
Procedure: as §1

NCI-H226 = assay: as above; assay type: cell-based, human; conditions: Homo sapiens, single dose 10 µM, negative = lethal, read-out: Percent growth inhibition
Procedure: as §1

NCI-H23 = assay: as above; assay type: cell-based, human; conditions: Homo sapiens, single dose 10 µM, negative = lethal, read-out: Percent growth inhibition
Procedure: as §1

NCI-522 = assay: as above; assay type: cell-based, human; conditions: Homo sapiens; NCI-522; single dose 10 µM; negative = lethal; read-out: Percent growth inhibition
Procedure: as §1

NCI-H322M = assay: as above; assay type: cell-based, human; conditions: Homo sapiens, single dose 10 µM, negative = lethal, read-out: Percent growth inhibition
Procedure: as §1

For c1cn2cc(-c3ccsc3)nc(-c3ccc4c(c3)ncn4C3CCCCC3)c2n1 [Compound 14, 8-(1-cyclohexyl-1H-benzo[d]imidazol-5-yl)-6-(thiophen-3-yl)imidazo[1,2-a]pyrazine], the inhibition at 10 µM (HCC-2998) was < 1%, the logP [1] was 1.63 and the inhibition at 10 µM (HCT-15) was 18.8%. The inhibition at 10 µM (HCT-116) was 15.8%, the inhibition at 10 µM (HT29) was 9.2% and the inhibition at 10 µM (COLO 205) was < 1%. It also gave an inhibition at 10 µM (RPMI-8226) of 20.8%, an inhibition at 10 µM (SR) of 23.6% and an inhibition at 10 µM (CCRF-CEM) of 1.1%. It also gave an inhibition at 10 µM (HL-60(TB)) of 2.65%, an inhibition at 10 µM (MOLT-4) of 14.3% and an inhibition at 10 µM (K-562) of 9.6%. For the same compound, the inhibition at 10 µM (IGROV1) was 19.1%, the inhibition at 10 µM (OVCAR-8) was 6.38% and the inhibition at 10 µM (OVCAR-5) was < 1%. The inhibition at 10 µM (OVCAR-4) was < 1%, the inhibition at 10 µM (SK-OV-3) was < 1% and the inhibition at 10 µM (NCI/ADR-RES) was 4.17%. The inhibition at 10 µM (PC-3) was 17.9%, the inhibition at 10 µM (DU-145) was < 1% and the inhibition at 10 µM (MDA-MB-468) was 0.73%. For the same compound, the inhibition at 10 µM (HS 578 T) was 6.34%, the inhibition at 10 µM (BT-549) was 4.68% and the inhibition at 10 µM (T-47D) was > 50%. For the same compound, the inhibition at 10 µM (MCF7) was 12%, the inhibition at 10 µM (MDA-MB-231/ATCC) was 7.65% and the inhibition at 10 µM (CAKI-1) was < 1%. The inhibition at 10 µM (ACHN) was 4.32%, the inhibition at 10 µM (RXF 393) was < 1% and the inhibition at 10 µM (A498) was < 1%. The inhibition at 10 µM (SN12C) was 6.33%, the inhibition at 10 µM (UO-31) was 23.1% and the inhibition at 10 µM (OVCAR-3) was < 1%. For the same compound, the melting point was 185 to 188 °C, the inhibition at 10 µM (EXVX) was < 1% and the inhibition at 10 µM (NCI-H460) was 7.12%. The inhibition at 10 µM (A549/ATCC) was < 1%, the inhibition at 10 µM (HOP-92) was 25% and the inhibition at 10 µM (HOP-62) was 7.41%. For the same compound, the inhibition at 10 µM (NCI-H226) was < 1%, the inhibition at 10 µM (NCI-H23) was 8.6% and the inhibition at 10 µM (NCI-522) was 10.4%. The inhibition at 10 µM (NCI-H322M) was 1.19%.

— paper PMC7162861, “Synthesis, cytotoxicity, pharmacokinetic profile, binding with DNA and BSA of new imidazo[1,2-a]pyrazine-benzo[d]imidazol-5-yl hybrids” (Scientific Reports, 2020)
